The source of these data is patent US9834558B2, “Substituted bridged urea analogs as sirtuin modulators” (GLAXOSMITHKLINE LLC, priority 2013, dated 2017).

Read-outs that look alike come from different tables or passages of the source.

This experiment concerns the target T1, SIRT1 (Homo sapiens, UniProt Q96EB6).
T1 sequence (Q96EB6 1-747): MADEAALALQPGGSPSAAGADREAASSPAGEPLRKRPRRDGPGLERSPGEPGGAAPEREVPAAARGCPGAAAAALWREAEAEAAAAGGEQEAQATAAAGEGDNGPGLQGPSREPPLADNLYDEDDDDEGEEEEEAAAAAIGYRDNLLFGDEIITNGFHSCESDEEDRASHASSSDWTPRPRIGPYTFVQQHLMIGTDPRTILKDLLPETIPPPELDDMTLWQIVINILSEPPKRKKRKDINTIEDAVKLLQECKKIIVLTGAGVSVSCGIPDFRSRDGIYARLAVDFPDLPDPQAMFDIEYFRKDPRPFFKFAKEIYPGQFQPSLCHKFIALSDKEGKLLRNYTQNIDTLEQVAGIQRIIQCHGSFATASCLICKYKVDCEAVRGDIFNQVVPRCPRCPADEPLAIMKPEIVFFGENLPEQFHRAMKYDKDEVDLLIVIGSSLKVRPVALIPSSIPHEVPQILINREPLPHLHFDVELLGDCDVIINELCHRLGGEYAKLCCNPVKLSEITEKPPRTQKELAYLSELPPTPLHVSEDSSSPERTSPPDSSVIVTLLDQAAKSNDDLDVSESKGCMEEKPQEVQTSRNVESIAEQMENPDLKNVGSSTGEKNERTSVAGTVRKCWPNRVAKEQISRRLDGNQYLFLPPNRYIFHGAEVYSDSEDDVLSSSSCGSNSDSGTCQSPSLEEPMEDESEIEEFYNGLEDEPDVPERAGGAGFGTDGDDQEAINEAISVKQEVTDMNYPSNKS
The experiment can be described thus: Trp mass spectrometry assay of SIRT1 activation. The class given is biochemical. Particulars: for TRP Activity (EC1.5): EC1.5 = concentration that results in 150% activation of SIRT1. In short, it runs like this:
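N-terminal His-tagged human SIRT1 (10 nM, E. coli BL21(DE3)) with 0.5 μM Ac-RHKK(Ac)W-NH2 peptide and 120 μM βNAD+, 25 min at 25 °C in HEPES pH 7.5, formic acid stop. OAADPR or deacetylated peptide quantified by mass spectrometry; EC1.5 (50% activity increase over control) and Percent Maximum Activation reported.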

Setting [1] is: concentration giving 150% activation of SIRT1, Trp peptide substrate.
The mark [2] stands for this setting: Trp mass spectrometry assay, EC1.5 = concentration of test compound that results in 150% activation of SIRT1.
[3] abbreviates: Trp peptide assay, maximum activity relative to control (100%), read-out: TRP MAX RESP (percent maximum fold activation).

Take `C#CCOc1cc(-c2ccc3c(n2)N(C(=O)Nc2cccc(C4(C(F)(F)F)N=N4)c2)[C@H]2CCN3C2)cc(C(F)(F)F)c1` [Example 800]: under setting [1], the “Tryp AVG EC1.5 (μM)” value was “C (C (EC1.5>25 μM))”.
Consider `N#Cc1ccccc1-c1ccc2c(n1)N(C(=O)Nc1cnccn1)[C@H]1CCCN2C1` [Example 450], for which, under setting [2], the “Tryp AVG EC1.5 (μM)” value is “B (B (EC1.5 1-25 μM))”.
For the compound `Cc1nccn1CCCNC(=O)N1c2nc(-c3cccc(C(F)(F)F)c3)ccc2N2CC[C@H]1C2` [Example 632], the “Tryp AVG EC1.5 (μM)” value under setting [1] was “C (C (EC1.5>25 μM))”.
As to `Cc1nn(C)cc1NC(=O)N1c2nc(-c3cccc(C(F)(F)F)c3)ccc2N2CC[C@H]1C2` [Example 92], the “Tryp AVG EC1.5 (μM)” value (Trp peptide substrate, concentration giving 150% activation of SIRT1) is recorded as “B (B (EC1.5 1-25 μM))”.
As for `O=C(NC1CCC1)c1ccc2c(n1)N(C(=O)Nc1ccccn1)[C@H]1CCN2C1` [(9S)-5-N-cyclobutyl-8-N-(pyridin-2-yl)-1,6,8-triazatricyclo[7.2.1.0^{2,7}]dodeca-2(7),3,5-triene-5,8-dicarboxamide], the “TRP Activity (EC1.5)” value (Trp peptide assay) is “A (A (EC1.5<1 μM))”. The Emax under setting [3] is > 150%.
With `Cc1cc(-c2ccc3c(n2)N(C(=O)Nc2ncnc4[nH]cnc24)[C@H]2CCN3C2)ccn1` [(9S)-5-(2-methylpyridin-4-yl)-N-(9H-purin-6-yl)-1,6,8-triazatricyclo[7.2.1.0^{2,7}]dodeca-2,4,6-triene-8-carboxamide], the “TRP Activity (EC1.5)” value (Trp peptide assay) is given as “B (B (EC1.5 1-25 μM))”. Also, the Emax (read-out: TRP MAX RESP (percent maximum fold activation)) was > 150%.
As to `Cc1cncc(-c2ccc3c(n2)N(C(=O)Nc2ccncn2)[C@H]2CCCN3C2)c1` [Example 517], the “Tryp AVG EC1.5 (μM)” value under setting [2] is “A (A (EC1.5<1 μM))”.
With `O=C(Nc1cnccn1)N1c2nc(-c3cnn(C4CC4)c3)ccc2N2CC[C@H]1C2` [(9S)-5-(1-cyclopropyl-1H-pyrazol-4-yl)-N-(pyrazin-2-yl)-1,6,8-triazatricyclo[7.2.1.0 {2,7}]dodeca-2(7),3,5-triene-8-carboxamide], the “TRP Activity (EC1.5)” value (Trp peptide assay) was “A (A (EC1.5<1 μM))”. Besides, the Emax under setting [3] is > 150%.
For the compound `NCc1cccc(NC(=O)N2c3nc(-c4cccc(C(F)(F)F)c4)ccc3N3CC[C@H]2C3)c1` [Example 755], under setting [1], the “Tryp AVG EC1.5 (μM)” value is reported as “B (B (EC1.5 1-25 μM))”.
Turning to `Cc1cc(-c2ccc3c(n2)N(C(=O)Nc2ccc4c(c2)OCCO4)[C@H]2CCN3C2)ccn1` [(9S)-N-(2,3-dihydro-1,4-benzodioxin-6-yl)-5-(2-methylpyridin-4-yl)-1,6,8-triazatricyclo[7.2.1.0 {2,7}]dodeca-2(7),3,5-triene-8-carboxamide], the “TRP Activity (EC1.5)” value (Trp peptide assay) was “B (B (EC1.5 1-25 μM))”. Under setting [3], the Emax is > 150%.
On to `O=C(Nc1cccc(-c2cnco2)n1)N1c2nc(-c3cncc(C(F)(F)F)c3)ccc2N2C[C@@H](O)[C@H]1C2` [Example 703], for which the “Tryp AVG EC1.5 (μM)” value under setting [1] is recorded as “A (A (EC1.5<1 μM))”.
Consider `N#Cc1cncc(-c2ccc3c(n2)N(C(=O)Nc2cncc(F)c2)[C@H]2CCCN3C2)c1` [Example 535], for which the “Tryp AVG EC1.5 (μM)” value under setting [2] is given as “B (B (EC1.5 1-25 μM))”.
Turning to `CC(C)(C)OC(=O)N1CCC(c2cccc(NC(=O)N3c4nc(-c5cccc(C(F)(F)F)c5)ccc4N4CC[C@H]3C4)c2)C1` (stereo partly shown) [Example 592], the “Tryp AVG EC1.5 (μM)” value under setting [2] is on record as “A (A (EC1.5<1 μM))”.
As to `CS(=O)(=O)c1cccc(-c2ccc3c(n2)N(C(=O)Nc2cccc(-c4cnco4)n2)[C@H]2CCN3C2)c1` [Example 715], the “Tryp AVG EC1.5 (μM)” value under setting [1] is on record as “B (B (EC1.5 1-25 μM))”.
`Cc1ccncc1-c1ccc2c(n1)N(C(=O)Nc1cccnn1)[C@H]1CCCN2C1` [Example 520]: the “Tryp AVG EC1.5 (μM)” value under setting [2] is “C (C (EC1.5>25 μM))”.
Take `CC(=O)NCc1ccc(NC(=O)N2c3nc(-c4cccc(C(F)(F)F)c4)ccc3N3CCC[C@H]2C3)cc1` [Example 790]: the “Tryp AVG EC1.5 (μM)” value under setting [1] is listed as “A (A (EC1.5<1 μM))”.
As for `O=C(Nc1cccc(-c2cnco2)c1)N1c2cc(-c3cccc(C(F)(F)F)c3)ccc2N2CC[C@H]1C2` [Example 786], under setting [1], the “Tryp AVG EC1.5 (μM)” value was “B (B (EC1.5 1-25 μM))”.
For `O=C(Nc1ccnc(OC[C@@H](O)CO)c1)N1c2nc(-c3cccc(C(F)(F)F)c3)ccc2N2CC[C@H]1C2` [(9S)-N-{2-[(2S)-2,3-dihydroxypropoxy]pyridin-4-yl}-5-[3-(trifluoromethyl)phenyl]-1,6,8-triazatricyclo[7.2.1.0 {2,7}]dodeca-2,4,6-triene-8-carboxamide], the “TRP Activity (EC1.5)” value (Trp peptide assay) is reported as “A (A (EC1.5<1 μM))”. In addition, the Emax under setting [3] is > 150%.
For `O=C(Nc1cccc(-c2cnco2)c1)N1c2nc(-c3cncc(F)c3)ccc2N2CC[C@H]1C2` [Example 722], the “Tryp AVG EC1.5 (μM)” value under setting [1] is on record as “A (A (EC1.5<1 μM))”.
As to `COc1cc(-c2ccc3c(n2)N(C(=O)Nc2cnccn2)[C@H]2CCN3C2)ccn1` [(9S)-5-(2-methoxypyridin-4-yl)-N-(pyrazin-2-yl)-1,6,8-triazatricyclo[7.2.1.0 {2,7}]dodeca-2(7),3,5-triene-8-carboxamide], under “Trp peptide assay”, the “TRP Activity (EC1.5)” value is reported as “B (B (EC1.5 1-25 μM))”. Besides, the Emax under setting [3] was > 150%.
Turning to `O=C(CCCCCNC(=O)c1ccc(-c2c3ccc(=O)cc-3oc3cc(O)ccc23)c(C(=O)O)c1)NCc1ccc(NC(=O)N2c3nc(-c4cccc(C(F)(F)F)c4)ccc3N3CCC[C@H]2C3)cc1` [546 (3), 2-(6-hydroxy-3-oxo-3H-xanthen-9-yl)-5-((6-oxo-6-((4-((9S)-2-(3-(trifluoromethyl)phenyl)-7,8,9,10-tetra-hydro-6H-5,9-methanopyrido[2,3-b][1,4]diazocine-10-carboxamido)benzyl)amino)hexyl)carbamoyl)benzoic acid], the “Tryp AVG EC1.5 (μM)” value under setting [2] was “B (B (EC1.5 1-25 μM))”.
Regarding `O=C(Nc1ccncn1)N1c2nc(-c3cncc(C(F)(F)F)c3)ccc2N2C[C@@H](O)[C@H]1C2` [Example 700], the “Tryp AVG EC1.5 (μM)” value under setting [1] is given as “B (B (EC1.5 1-25 μM))”.
In the case of `CC(C)(C)OC(=O)NCc1cccc(-c2ccc3c(n2)N(C(=O)Nc2ccncc2)[C@H]2CCN3C2)c1` [Example 794], the “Tryp AVG EC1.5 (μM)” value under setting [1] is reported as “B (B (EC1.5 1-25 μM))”. Moreover, the Emax (percent maximum fold activation of SIRT1, Trp peptide substrate, read-out: Tryp % Fold Act) is > 150%.
As for `[N-]=[N+]=NCc1cc(N=[N+]=[N-])cc(-c2ccc3c(n2)N(C(=O)Nc2cnccn2)[C@H]2CCN3C2)c1` [Example 808], the “Tryp AVG EC1.5 (μM)” value under setting [1] is “A (A (EC1.5<1 μM))”.
In the case of `O=C(Nc1ccc(F)cn1)N1c2nc(-c3ccnc(N4CC[C@@H](F)C4)c3)ccc2N2CC[C@H]1C2` [Example 474], the “Tryp AVG EC1.5 (μM)” value under setting [2] is reported as “A (A (EC1.5<1 μM))”.
`CCC(=O)N1CCC(c2cccc(NC(=O)N3c4nc(-c5cccc(C(F)(F)F)c5)ccc4N4CC[C@H]3C4)c2)C1` (stereo partly shown) [Example 636]: under setting [1], the “Tryp AVG EC1.5 (μM)” value was “A (A (EC1.5<1 μM))”.
In the case of `Cc1cc(-c2ccc3c(n2)N(C(=O)Nc2ccccn2)[C@H]2CCCN3C2)ccn1` [(9S)-5-(2-methylpyridin-4-yl)-N-(pyridin-2-yl)-1,6,8-triazatricyclo[7.3.1.0 {2,7}]trideca-2(7),3,5-triene-8-carboxamide], for the setting “Trp peptide assay”, the “TRP Activity (EC1.5)” value is “A (A (EC1.5<1 μM))”. In addition, under setting [3], the Emax is > 150%.
Consider `O=C(Nc1cccnn1)N1c2nc(-c3cccc(Cl)c3)ccc2N2CC[C@H]1C2` [Example 822], for which the “Tryp AVG EC1.5 (μM)” value under setting [1] is reported as “A (A (EC1.5<1 μM))”.
As for `O=C(Nc1ccncc1F)N1c2nc(-c3cccc(CC(O)CO)c3)ccc2N2CC[C@H]1C2` (stereo partly shown) [Example 357], the “Tryp AVG EC1.5 (μM)” value (Trp mass spectrometry assay, concentration of test compound giving 150% activation of SIRT1) is reported as “B (B (EC1.5 1-25 μM))”.
For `O=C(Nc1ccccc1CCC(F)(F)F)N1c2nc(Cl)ccc2N2CC[C@H]1C2` [(9S)-5-chloro-N-[2-(3,3,3-trifluoropropyl)phenyl]-1,6,8-triazatricyclo[7.2.1.0 {2,7}]dodeca-2(7),3,5-triene-8-carboxamide], the “TRP Activity (EC1.5)” value (Trp peptide assay) is recorded as “B (B (EC1.5 1-25 μM))”. The Emax under setting [3] was > 150%.
Turning to `O=C(Nc1cccnc1)N1c2nc(-c3cncc(Cl)c3)ccc2N2CC[C@H]1C2` [Example 526], the “Tryp AVG EC1.5 (μM)” value under setting [2] is reported as “A (A (EC1.5<1 μM))”.
Take `Cc1ccc(-c2cc(C)c3c(n2)N(C(=O)Nc2ccccn2)[C@H]2CCN3C2)cn1` [(9S)-3-methyl-5-(6-methylpyridin-3-yl)-N-(pyridin-2-yl)-1,6,8-triazatricyclo[7.2.1.0^{2,7}]dodeca-2,4,6-triene-8-carboxamide]: the “TRP Activity (EC1.5)” value (Trp peptide assay) is “B (B (EC1.5 1-25 μM))”. In addition, the Emax under setting [3] is > 150%.
On to `Cc1nc(NC(=O)N2c3nc(-c4cccc(N5CCOCC5)c4)ccc3N3CCC[C@H]2C3)sc1C` [Example 537], for which the “Tryp AVG EC1.5 (μM)” value under setting [2] is on record as “B (B (EC1.5 1-25 μM))”.
